Columns and labels:
[1] = test system: AGE-LDL formation (Low density lipoprotein incubated with CuCl2); assay: In vitro inhibition of AGE-LDL formation: LDL incubated with CuCl2, MDA-lysine adduct fluorescence; assay type: biochemical; details: LDL with CuCl2 at 37° C.
Protocol: In vitro Inhibition of AGE-LDL Formation:
Low density lipoprotein (LDL) was incubated with CuCl2 at 37° C. in phosphate buffered saline in the presence and absence of the following compounds. […] Results were expressed as % MDA-lysine adducts accumulation, considering the extent of the same formed upon incubation with CuCl2 alone as 100%.

[2] = test system: AGE-BSA Formation (Bovine Serum Albumin incubated with ribose); assay: In vitro prevention of advanced glycation endproducts (AGEs) accumulation: BSA incubated with ribose, fluorescence; details: one week
Protocol: A reduction in fluorescence intensity in the presence of the test compound is an indication of its ability to prevent accumulation of advanced glycation endproducts.
Bovine Serum Albumin was incubated with ribose alone as well as with ribose and different concentrations of the following compounds under aseptic conditions for one week. At the end of the incubation period fluorescence intensity of the samples was measured at excitation and emission wavelengths of 355 nm and 460 nm respectively.

Compound | % Inhibition of AGE-LDL-formation ([1]; Conc. 250 uM) | % Inhibition of AGE-BSA Formation ([2]; Conc. 1 mM) | % Inhibition of AGE-LDL-formation ([1]; Conc. 100 uM) | % Inhibition of AGE-BSA Formation ([2]; Conc. 100 uM) | further results
COc1ccc(C(=O)CN2C=CCC(C(=O)NNS(C)(=O)=O)=C2)cc1 [compound 144, 1-[2-(4-methoxyphenyl)-2-oxoethyl]-N′-(methylsulfonyl)-1,4-dihydropyridine-3-carbohydrazide] | ++++ (++++ indicate >30%) | + (+ indicate 0-10%) | – | – | –
CS(=O)(=O)NNC(=O)C1=CCCN(CC(=O)c2ccc(Br)cc2)C1 [compound 167, 1-[2-(4-bromophenyl)-2-oxoethyl]-N′-(methylsulfonyl)-1,2,5,6-tetrahydropyridine-3-carbohydrazide] | + (+ indicate 0-10%) | + (+ indicate 0-10%) | – | – | –
COc1ccc(C(=O)CN2CC=CC(C(=O)NNS(C)(=O)=O)C2)cc1 (stereo not shown) [compound 181, 1-[2-(4-methoxyphenyl)-2-oxoethyl]-N′-(methylsulfonyl)-1,2,3,6-tetrahydropyridine-3-carbohydrazide] | – | – | + (+ indicate 0-10%) | – | % Inhibition of AGE-BSA Formation ([2]; Conc. 250 uM): + (+ indicate 0-10%)
COc1ccc(C(=O)CN2CCC=C(C(=O)NNS(C)(=O)=O)C2)cc1 [compound 172, 1-[2-(4-methoxyphenyl)-2-oxoethyl]-N′-(methylsulfonyl)-1,2,5,6-tetrahydropyridine-3-carbohydrazide] | – | – | – | – | % Inhibition of AGE-LDL-formation ([1]; Conc. 50 uM): + (+ indicate 0-10%); % Inhibition of AGE-BSA Formation ([2]; Conc. 50 uM): + (+ indicate 0-10%)
O=C(NNC(=O)C1=CCCN(CC(=O)c2cccs2)C1)Nc1ccc(Cl)cc1 [compound 171, N-(4-chlorophenyl)-2-({1-[2-oxo-2-(thiophen-2-yl)ethyl]-1,2,5,6-tetrahydropyridin-3-yl}carbonyl)hydrazinecarboxamide] | – | – | + (+ indicate 0-10%) | + (+ indicate 0-10%) | –
O=C(NNS(=O)(=O)c1ccccc1)C1=CCCN(CC(=O)c2cccs2)C1 [compound 169, 1-[2-oxo-2-(thiophen-2-yl)ethyl]-N′-(phenylsulfonyl)-1,2,5,6-tetrahydropyridine-3-carbohydrazide] | – | – | + (+ indicate 0-10%) | + (+ indicate 0-10%) | –
Cc1ccc(C(=O)CN2CCC=C(C(=O)NNS(C)(=O)=O)C2)s1 [compound 174, N′-(methylsulfonyl)-1-[2-(5-methylthiophen-2-yl)-2-oxoethyl]-1,2,5,6-tetrahydropyridine-3-carbohydrazide] | ++++ (++++ indicate >30%) | + (+ indicate 0-10%) | – | – | –
O=C(CN1CCCC(C(=O)NNS(=O)(=O)c2ccccc2)C1)c1cccs1 (stereo not shown) [compound 160, 1-[2-oxo-2-(thiophen-2-yl)ethyl]-N′-(phenylsulfonyl)piperidine-3-carbohydrazide] | – | – | + (+ indicate 0-10%) | + (+ indicate 0-10%) | –
COc1ccc(C2=CN(CC(=O)c3cccs3)C=C(C(=O)NNS(C)(=O)=O)C2)cc1 [compound 151, 5-(4-methoxyphenyl)-N′-(methylsulfonyl)-1-[2-oxo-2-(thiophen-2-yl)ethyl]-1,4-dihydropyridine-3-carbohydrazide] | – | – | + (+ indicate 0-10%) | + (+ indicate 0-10%) | –
CS(=O)(=O)NNC(=O)C1=CN(CC(=O)c2ccc(Br)cc2)C=CC1 [compound 143, 1-[2-(4-bromophenyl)-2-oxoethyl]-N′-(methylsulfonyl)-1,4-dihydropyridine-3-carbohydrazide] | – | – | ++++ (++++ indicate >30%) | + (+ indicate 0-10%) | –
CC(C)(C)c1ccc(S(=O)(=O)NNC(=O)C2CCCN(CC(=O)c3cccs3)C2)cc1 (stereo not shown) [compound 165, N′-[(4-tert-butylphenyl)sulfonyl]-1-[2-oxo-2-(thiophen-2-yl)ethyl]piperidine-3-carbohydrazide] | – | – | + (+ indicate 0-10%) | + (+ indicate 0-10%) | –
CS(=O)(=O)NNC(=O)C1=CN(CC(=O)c2ccc(Cl)cc2Cl)C=CC1 [compound 168, 1-[2-(2,4-dichlorophenyl)-2-oxoethyl]-N′-(methylsulfonyl)-1,4-dihydropyridine-3-carbohydrazide] | – | – | + (+ indicate 0-10%) | + (+ indicate 0-10%) | –
CS(=O)(=O)NNC(=O)C1=CN(CC(=O)c2cccs2)CCC1 [compound 187, N′-(methylsulfonyl)-1-[2-oxo-2-(thiophen-2-yl)ethyl]-1,4,5,6-tetrahydropyridine-3-carbohydrazide] | – | + (+ indicate 0-10%) | – | – | –
Cc1ccc(C(=O)CN2CC=CC(C(=O)NNS(C)(=O)=O)C2)s1 (stereo not shown) [compound 182, N′-(methylsulfonyl)-1-[2-(5-methylthiophen-2-yl)-2-oxoethyl]-1,2,3,6-tetrahydropyridine-3-carbohydrazide] | +++ (+++ indicate 21-30%) | + (+ indicate 0-10%) | – | – | –
Cc1ccc(S(=O)(=O)NNC(=O)C2=CN(CC(=O)c3cccs3)C=CC2)cc1 [compound 147, N′-[(4-methylphenyl)sulfonyl]-1-[2-oxo-2-(thiophen-2-yl)ethyl]-1,4-dihydropyridine-3-carbohydrazide] | – | – | ++++ (++++ indicate >30%) | +++ (+++ indicate 21-30%) | –
Cc1ccc(S(=O)(=O)NNC(=O)C2=CN(CC(=O)Nc3ccccc3)C=CC2)cc1 [compound 145, 2-[3-({2-[(4-methylphenyl)sulfonyl]hydrazinyl}carbonyl)pyridin-1(4H)-yl]-N-phenylacetamide] | + (+ indicate 0-10%) | – | – | – | % Inhibition of AGE-BSA Formation ([2]; Conc. 250 uM): + (+ indicate 0-10%)
CS(=O)(=O)NNC(=O)C1=CN(CC(=O)c2cccs2)CCC1 [compound 183, N′-(methylsulfonyl)-1-[2-oxo-2-(thiophen-2-yl)ethyl]-1,4,5,6-tetrahydropyridine-3-carbohydrazide] | ++ (++ indicate 11-20%) | +++ (+++ indicate 21-30%) | – | – | –
COc1ccc(C(=O)CN2CCCC(C(=O)NNS(C)(=O)=O)C2)cc1 (stereo not shown) [compound 163, 1-[2-(4-methoxyphenyl)-2-oxoethyl]-N′-(methylsulfonyl)piperidine-3-carbohydrazide] | – | – | + (+ indicate 0-10%) | – | % Inhibition of AGE-BSA Formation ([2]; Conc. 250 uM): + (+ indicate 0-10%)
CS(=O)(=O)NNC(=O)C1=CCCN(CC(=O)c2cccs2)C1 [compound 185, N′-(methylsulfonyl)-1-[2-oxo-2-(thiophen-2-yl)ethyl]-1,2,5,6-tetrahydropyridine-3-carbohydrazide] | +++ (+++ indicate 21-30%) | + (+ indicate 0-10%) | – | – | –
COc1ccc(C(=O)CN2CCC=C(C(=O)NNS(=O)(=O)c3ccc(C)cc3)C2)cc1 [compound 173, 1-[2-(4-methoxyphenyl)-2-oxoethyl]-N′-[(4-methylphenyl)sulfonyl]-1,2,5,6-tetrahydropyridine-3-carbohydrazide] | – | – | + (+ indicate 0-10%) | + (+ indicate 0-10%) | –
CS(=O)(=O)NNC(=O)C1=CN(CC(=O)c2ccc(Cl)s2)C=CC1 [Compound no. 6, 1-[2-(5-chlorothiophen-2-yl)-2-oxoethyl]-N′-(methylsulfonyl)-1,4-dihydropyridine-3-carbohydrazide] | ++++ (++++ indicate >30%) | +++ (+++ indicate 21-30%) | – | – | –
COc1ccc(C(=O)CN2CCCC(C(=O)NNS(=O)(=O)c3ccc(C)cc3)C2)cc1 (stereo not shown) [compound 162, 1-[2-(4-methoxyphenyl)-2-oxoethyl]-N′-[(4-methylphenyl)sulfonyl]piperidine-3-carbohydrazide] | – | – | ++++ (++++ indicate >30%) | + (+ indicate 0-10%) | –
O=C(NCCO)C1=CN(CC(=O)c2cccs2)CCC1 [compound 158, N-(2-hydroxyethyl)-1-[2-oxo-2-(thiophen-2-yl)ethyl]-1,4,5,6-tetrahydropyridine-3-carboxamide] | – | – | + (+ indicate 0-10%) | – | % Inhibition of AGE-BSA Formation ([2]; Conc. 250 uM): + (+ indicate 0-10%)
CS(=O)(=O)NNC(=O)C1C=CCN(CC(=O)c2cccs2)C1 (stereo not shown) [compound 186, N′-(methylsulfonyl)-1-[2-oxo-2-(thiophen-2-yl)ethyl]-1,2,3,6-tetrahydropyridine-3-carbohydrazide] | ++++ (++++ indicate >30%) | + (+ indicate 0-10%) | – | – | –
O=C(NCCO)C1=CN(CC(=O)c2ccc(Br)cc2)C=CC1 [compound 148, 1-[2-(4-bromophenyl)-2-oxoethyl]-N-(2-hydroxyethyl)-1,4-dihydropyridine-3-carboxamide] | – | + (+ indicate 0-10%) | – | – | –
O=C(CN1C=CCC(C(=O)NCCOC(=O)c2ccccc2)=C1)Nc1ccccc1 [Compound no. 107, 2-[({1-[2-oxo-2-(phenylamino)ethyl]-1,4-dihydropyridin-3-yl}carbonyl)amino]ethyl benzoate] | – | – | + (+ indicate 0-10%) | – | –

Reference: patent publication US20120046317A1, “NOVEL HETEROCYCLIC COMPOUNDS” (priority 2009, published 2012)
